Measured values taken from patent US10973810B2, “Methods for the treatment of neurological disorders” (Yumanity Therapeutics, Inc., priority 2017, dated 2021).

Legend:
Assay type in all cases: cell-based
[1] = test system: alpha-synuclein (A53T) transfected rat cortical neurons; test: Neurite degeneration assay in transfected rat cortical neurons
Protocol: Rat primary cortical neurons cultured in 96-well plates (Greiner Bio-One) were co-transfected with a fluorescence reporter plasmid (encoding mKate2) and empty or alpha-synuclein-A53T overexpression plasmids by lipofection at 5-6 div (days in vitro). LIPOFECTAMINE® 2000 transfection reagent (Thermo Fisher) (0.5 μl/well) was diluted in NEUROBASAL® media (Thermo Fisher) and incubated for 5-10 min. The LIPOFECTAMINE®/NEUROBASAL® mixture was then added dropwise to a plasmid cocktail diluted in NEUROBASAL® media, and incubated for approximately 40 min. During this time, conditioned media on the neurons was replaced with media containing 1× kynurenic Acid (Sigma-Aldrich) in NEUROBASAL® media (NBKY). LIPOFECTAMINE®/DNA complex solutions were subsequently added dropwise to neurons in the NBKY media in the 96-well plate. Lipofection was carried out for 30-40 min in a standard cell culture incubator (37° C., 5% CO2). Neurons were then washed with NEUROBASAL® media, and 50% conditioned/50% fresh NEUROBASAL® media containing B-27 supplement and GlutaMax™ (Thermo Fisher) (NBM) was applied to the cultures.
Transfected rat cortical neuron cultures were treated with DMSO or CAY10566 compound 4-6 h post-transfection. […] Neurite lengths of transfected neurons were tracked by an RFP reporter, mKate2, and measured by NeuroTrack™ Software Module (Essen Bioscience). […]

[2] = test system: human iPSC-derived neurons harboring the alpha-synuclein A53T mutation; test: Neuron survival assay, human iPSC-derived neurons harboring the alpha-synuclein A53T mutation; conditions: 100 nM and 30 nM; relative to DMSO controls in A53T neurons; 8 to 10 d
Protocol: FIG. 15 is a graph showing that SCD inhibition with CAY10566 reduced the cumulative risk of death in human iPSC-derived neurons harboring the alpha-synuclein A53T mutation. Human iPSC cells harboring the alpha-synuclein A53T mutation or an isogenic control line in which the mutation was corrected to wild-type were trans-differentiated into neurons. Single cells were evaluated for survival (based on overall morphology) over the course of the 192 hour study. Cell survival data was analyzed by a non-parametric Kaplan-Meier procedure to estimate survival probability, which is shown as the cumulative risk of cell death. (HR, hazard ratio; P, p value (*<0.05, ns=not significant (>0.05)); CI, confidence interval; N, number of neurons tracked). […]
Transfected neuronal cultures were imaged at 12-24 h intervals for the indicated number of days by robotic microscopy. Fluorescence images were acquired with a Nikon Eclipse Ti microscope equipped with a motorized stage, 20× extra-long working distance (ELWD) objective, and an Andor Zyla cMOS camera. […] Images were processed and analyzed with custom-made scripts in R and ImageJ software. The lifetimes of individual neurons were determined by tracking fluorescently-labeled neurons in ImageJ. Neuronal death was determined to occur upon incidence of RFP signal loss or rupture of cell body. […]

[3] = test system: A53T α-synuclein transfected human iPSC-derived neurons; test: Neuron survival, A53T α-synuclein transfected human iPSC-derived neurons; conditions: all tested concentrations (3 μM to 0.3 μM); relative to DMSO controls
Protocol: FIG. 16 is a graph illustrating that non-selective SCD reference inhibitor, CAY10566, reduces risk of death in A53T α-synuclein transfected human iPSC-derived neurons. Human iPSC-derived neurons were co-transfected with a fluorescence reporter plasmid encoding RFP (morphology tracer) and control plasmid (empty) or plasmid containing α-synuclein-A53T mutation (syn-A53T). Neuron groups as indicated were treated with either DMSO or CAY10566 at the indicated doses. The lifetimes of single neurons were tracked over time based on either loss of RFP fluorescence signal or morphological indicators of neuron death such as loss of neurites or cell blebbing. […] Cox proportional hazard analysis was used to estimate relative risk of death, or hazard ratio (HR) and the P value was determined by the logrank test. […]
FIG. 17 is a graph illustrating that an SCD5-selective inhibitor reduces risk of death in A53T α-synuclein transfected human iPSC-derived neurons. Human iPSC-derived neurons were co-transfected with a fluorescence reporter plasmid encoding RFP (morphology tracer) and control plasmid (empty) or plasmid containing α-synuclein-A53T mutation (syn-A53T). […] The lifetimes of single neurons were tracked over time based on either loss of RFP fluorescence signal or morphological indicators of neuron death such as loss of neurites or cell blebbing. […]

Cc1nnc(-c2ccc(N3CCC(Oc4cc(F)ccc4Cl)CC3)nn2)o1 [CAY10566]
neurite degeneration at highest concentrations ([1]; 10 nM and 3 nM, overlapping with control cultures not transfected with alpha-synuclein A53T): complete rescue | neurite degeneration ([1]; titration from 10 nM down to 10 pM, tracked every 6 h for 7 d, relative to DMSO): concentration-dependent decrease in neurite degeneration | risk of neuron death [2]: significantly reduced | risk of neuron death [3]: significantly reduced
